Test results published in PubChem BioAssay (NCI).
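Dose response: 5 concentrations. Exposure: 48 h. Format: 96-well plates. Endpoint: linear interpolation; highest concentration if not reached. GI50 is the concentration that inhibits growth by half. Definition used: TGI = concentration required for complete inhibition of growth.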

Legend:
Test in all cases: inhibition of tumour cell growth, NCI panel, 48 h
[1] = system: MDA-MB-468 breast
[2] = system: NCI-H23 lung
[3] = system: HOP-62 NSCLC
[4] = system: LOX IMVI melanoma
[5] = system: IGROV1 ovarian
[6] = system: SNB-19 CNS
[7] = system: OVCAR-5 ovarian
[8] = system: SF-268 CNS
[9] = system: U251 CNS
[10] = system: HCT-15 colon
[11] = system: MDA-MB-231 breast
[12] = system: SF-539 CNS
[13] = system: OVCAR-8 ovarian
[14] = system: MOLT-4 leukemia
[15] = system: CAKI-1 renal
[16] = system: MDA-MB-435
[17] = system: OVCAR-4 ovarian
[18] = system: BT-549 breast
[19] = system: RXF 393 renal
[20] = system: SN12C renal
[21] = system: CCRF-CEM leukemia
[22] = system: SK-MEL-5 melanoma
[23] = system: HT29 colon
[24] = system: MALME-3M melanoma
[25] = system: T-47D breast
[26] = system: A549 NSCLC
[27] = system: SR leukemia
[28] = system: SF-295 CNS
[29] = system: HS 578T breast
[30] = system: A498 renal
[31] = system: SK-OV-3 ovarian
[32] = system: K-562 leukemia
[33] = system: TK-10 renal
[34] = system: MCF7 breast
[35] = system: HL-60(TB) leukemia
[36] = system: OVCAR-3 ovarian
[37] = system: KM12 colon
[38] = system: HCC-2998 colon
[39] = system: EKVX NSCLC
[40] = system: NCI-H460 lung
[41] = system: NCI-H226 lung
[42] = system: UACC-62 melanoma
[43] = system: M14 melanoma
[44] = system: PC-3 prostate
[45] = system: NCI-H522 lung
[46] = system: UO-31 renal
[47] = system: DU-145 prostate
[48] = system: UACC-257 melanoma
[49] = system: SW-620 colon
[50] = system: SK-MEL-28 melanoma
[51] = system: HOP-92 NSCLC
[52] = system: COLO 205 colon
[53] = system: HCT-116 colon
[54] = system: RPMI-8226 leukemia
[55] = system: ACHN renal
[56] = system: 786-0 renal
[57] = system: SNB-75 CNS

O=C(Nc1ccccc1)Nc1cccc(-n2cc(-c3ccncc3)c(-c3ccc(O)c(Cl)c3)n2)c1
GI50 [1]: 3.22 µM
TGI [1]: 12.2 µM

O=C1C(=O)c2ccccc2-c2ccccc21
GI50 [1]: 1.7 µM
TGI [1]: 3.53 µM

CCCCCCCC/C=C/CCCCCCCC1=NC(C)(C)CN1C(C)C
GI50 [1]: 1.31 µM
TGI [1]: 2.7 µM

COc1ccc(/C=C2\CN(Cc3cn(CCCNc4ccnc5cc(Cl)ccc45)nn3)C/C(=C\c3ccc(OC)c(OC)c3)C2=O)cc1OC
GI50 [1]: 0.772 µM
TGI [1]: 2.49 µM

O=C(O)C(CSC(c1ccccc1)(c1ccccc1)c1ccccc1)N=Cc1cccs1 (stereo unspecified)
GI50 [1]: 0.232 µM
TGI [1]: 0.922 µM

COc1ccc(-c2nn(-c3cccc(NC(=O)Nc4ccc(Cl)c(C(F)(F)F)c4)c3)cc2-c2ccncc2)cc1Cl
GI50 [1]: 1.63 µM
TGI [1]: 6.78 µM

CCOC(=O)/C(=C/c1ccc([N+](=O)[O-])cc1)C(=O)c1ccccc1
GI50 [1]: 2.31 µM
TGI [1]: 4.6 µM

C=C1C(=O)O[C@H]2[C@H]1CC/C(COC(=O)CCCCCCCCC(=O)OC/C1=C/CC[C@@]3(C)O[C@H]3[C@H]3OC(=O)C(=C)[C@@H]3CC1)=C\CC[C@@]1(C)O[C@@H]21
GI50 [1]: 2.27 µM
TGI [1]: 5.15 µM

O=C1/C(=C\C(Cl)=C/c2ccc([N+](=O)[O-])cc2)SC(=S)N1CCc1ccc(O)cc1
GI50 [1]: 0.405 µM
TGI [1]: 1.74 µM

CN(C)CCCN(c1nc(C(Cl)(Cl)Cl)ns1)c1nc(C(Cl)(Cl)Cl)ns1
GI50 [1]: 1.66 µM
TGI [1]: 3.11 µM

COc1cc(/C=C2\CN(C)C/C(=C\c3cc(OC)c(OC)c(OC)c3)C2=O)cc(OC)c1OC
GI50 [1]: 0.266 µM
TGI [1]: 0.849 µM

O=C(Nc1n[nH]c2nc(-c3ccco3)ccc12)C1CC1
GI50 [1]: > 25 µM
TGI [1]: > 25 µM

Cc1c2c(nn1C(=O)c1nn(-c3ccc(Cl)cc3)cc1O)-c1ccccc1CC2
GI50 [1]: 0.25 µM
TGI [1]: > 58.2 µM

O=C(COc1ccc(NC(=O)Nc2ccc(Cl)cc2)cc1)N/N=C/c1ccccc1
GI50 [2]: 4.21 µM
TGI [2]: 25.9 µM
GI50 [3]: 2.62 µM
TGI [3]: 11.1 µM
GI50 [4]: 7.1 µM
TGI [4]: > 100 µM
GI50 [5]: 14.1 µM
TGI [5]: > 100 µM
GI50 [6]: 4.42 µM
TGI [6]: 20.7 µM
GI50 [7]: > 100 µM
TGI [7]: > 100 µM
GI50 [8]: 16.2 µM
TGI [8]: 99.8 µM
GI50 [9]: 4.05 µM
TGI [9]: > 100 µM
GI50 [10]: 5.85 µM
TGI [10]: > 100 µM
GI50 [11]: 8.57 µM
TGI [11]: 47.6 µM
GI50 [12]: 6.23 µM
TGI [12]: 27.4 µM
GI50 [13]: 3.81 µM
TGI [13]: > 100 µM
GI50 [14]: 59.5 µM
TGI [14]: > 100 µM
GI50 [15]: 15 µM
TGI [15]: > 100 µM
GI50 [16]: 3.76 µM
TGI [16]: > 100 µM
GI50 [17]: 3.34 µM
TGI [17]: 68.7 µM
GI50 [18]: 4.41 µM
TGI [18]: 56.2 µM
GI50 [19]: 4.55 µM
TGI [19]: 19 µM
GI50 [20]: 7.64 µM
TGI [20]: > 100 µM
GI50 [21]: 21.8 µM
TGI [21]: > 100 µM
GI50 [22]: 8.49 µM
TGI [22]: > 100 µM
GI50 [23]: 31.2 µM
TGI [23]: > 100 µM
GI50 [24]: 4.44 µM
TGI [24]: 71.7 µM
GI50 [25]: 8.22 µM
TGI [25]: > 100 µM
GI50 [26]: 4.67 µM
TGI [26]: > 100 µM
GI50 [27]: 4.59 µM
TGI [27]: 33.1 µM
GI50 [28]: 2.69 µM
TGI [28]: 13.7 µM
GI50 [29]: 7.71 µM
TGI [29]: 54.2 µM
GI50 [30]: 20.1 µM
TGI [30]: 50.9 µM
GI50 [31]: 6.06 µM
TGI [31]: 25.8 µM
GI50 [32]: 12.6 µM
TGI [32]: > 100 µM
GI50 [33]: 20.2 µM
TGI [33]: 63.8 µM
GI50 [34]: 3.88 µM
TGI [34]: > 100 µM
GI50 [35]: > 100 µM
TGI [35]: > 100 µM
GI50 [36]: 4.15 µM
TGI [36]: 54.2 µM
GI50 [37]: > 100 µM
TGI [37]: > 100 µM
GI50 [38]: 22.5 µM
TGI [38]: > 100 µM
GI50 [39]: 6.09 µM
TGI [39]: 90.8 µM
GI50 [40]: 3.22 µM
TGI [40]: > 100 µM
GI50 [41]: 2.85 µM
TGI [41]: 9.82 µM
GI50 [42]: 2.82 µM
TGI [42]: 13.7 µM
GI50 [43]: 5.02 µM
TGI [43]: > 100 µM
GI50 [44]: 2.81 µM
TGI [44]: 21.2 µM
GI50 [1]: 3.23 µM
TGI [1]: 10.6 µM
GI50 [45]: 7.74 µM
TGI [45]: > 100 µM
GI50 [46]: 86.4 µM
TGI [46]: > 100 µM
GI50 [47]: 4.51 µM
TGI [47]: > 100 µM
GI50 [48]: 17.4 µM
TGI [48]: > 100 µM
GI50 [49]: 6.03 µM
TGI [49]: > 100 µM
GI50 [50]: 3.87 µM
TGI [50]: 43.1 µM
GI50 [51]: 3 µM
TGI [51]: 16 µM
GI50 [52]: 19 µM
TGI [52]: > 100 µM
GI50 [53]: 1.68 µM
TGI [53]: 12.6 µM
GI50 [54]: 63.9 µM
TGI [54]: > 100 µM
GI50 [55]: 4.64 µM
TGI [55]: 37.6 µM
GI50 [56]: 6.26 µM
TGI [56]: 24.9 µM
GI50 [57]: 3.95 µM
TGI [57]: 24.3 µM

O=C(O)c1ccc2c(c1Nc1ccccc1)C(=O)c1ccccc1C2=O
GI50 [1]: 31.8 µM
TGI [1]: > 100 µM

CCN(CC)CCOc1ccc(/C(=C(\C)Cc2ccc(OC)cc2)c2ccc(OC(=O)NCc3ccccc3)cc2)cc1
GI50 [1]: 1.9 µM
TGI [1]: 3.96 µM

O=C1c2cc3c(cc2-c2c1c1ccc(Cl)cc1c(=O)n2C[C@H](O)[C@@H](O)[C@H](O)CO)OCO3
GI50 [1]: 0.0189 µM
TGI [1]: 0.0459 µM

c1cc(OCCN2CCCCCC2)ccc1CNc1ccc2nc(CCC3CCCCC3)[nH]c2c1
GI50 [1]: 1.55 µM
TGI [1]: 4.02 µM

COc1cc(/C=C/C(=O)c2ccc(Nc3ncnc4ccccc34)cc2)cc(OC)c1
GI50 [1]: 2.2 µM
TGI [1]: 10.7 µM

CN1CCC[C@@H]1CCO[C@](C)(c1ccccc1)c1ccc(Cl)cc1
GI50 [1]: 1.66 µM
TGI [1]: 3.51 µM

Cc1cccc2c(N=Nc3ccc(S(N)(=O)=O)cc3)c(O)[nH]c12
GI50 [1]: > 25 µM
TGI [1]: > 25 µM

COc1ccc(/C(C)=C(\c2ccc(Cl)cc2)c2ccc(OCCN3CCCC3)cc2)cc1F
GI50 [1]: 3.35 µM
TGI [1]: 7.18 µM

COc1ccc(N(CC(=O)NCCC[Te]c2ccccc2)C(=O)CCSC2=C(C)C(=O)c3ccccc3C2=O)cc1
GI50 [1]: 1.67 µM
TGI [1]: 3.39 µM

C/C(CC(=O)NNc1ccc([N+](=O)[O-])cc1)=N\Nc1ccc([N+](=O)[O-])cc1
GI50 [1]: 28.1 µM
TGI [1]: > 100 µM

N#CC(=S)Nc1ccc(Cl)c(Cl)c1
GI50 [1]: 6.1 µM
TGI [1]: 52.2 µM

C=C1C(=O)O[C@H]2[C@H]1CC/C(Cn1cc(Cn3ccc4ccccc43)nn1)=C\CC[C@@]1(C)O[C@@H]21
GI50 [1]: 0.717 µM
TGI [1]: 2.48 µM

O=C1OCc2c1cc(F)cc2[N+](=O)[O-]
GI50 [1]: > 100 µM
TGI [1]: > 100 µM

COc1ccc(-c2cnc3ccnn3c2-c2cc(OC)c(OC)c(OC)c2)cc1
GI50 [1]: 2.64 µM
TGI [1]: > 100 µM

CCN(CC)c1ccc2c(c1)Oc1nc(N)c(C#N)c(N)c1C2Sc1ccc(C)cc1 (stereo unspecified)
GI50 [1]: 1.62 µM
TGI [1]: 3.14 µM

CCCc1cc2cc(-n3nc(C)c4c3CC(C)(C)CC4=O)cc(NC3CCC(O)CC3)c2c(=O)[nH]1 (stereo unspecified)
GI50 [1]: 0.0475 µM
TGI [1]: > 100 µM

CN[C@]12CC3(C=CC(=O)C=C3)O[C@@]1(Cc1ccc(OC)cc1)N(C)C(=O)N2
GI50 [1]: 1.25 µM
TGI [1]: 3.5 µM

NC1=C(Cl)C(=O)c2ccc(S(N)(=O)=O)cc2C1=O
GI50 [1]: 0.181 µM
TGI [1]: 0.486 µM
